Structures can show the parent of a compound that is named as a salt.
Columns and labels:
[1] = molecular target: T1, VEGF Receptor 2 Kinase (VEGFR2) (Homo sapiens, UniProt P35968); assay: Determination of VEGF receptor 2 kinase (VEGFR2) inhibitory activity (alpha screen); type: biochemical; conditions: VEGFR2 intracellular domain protein, 25 μM ATP buffer, read-out: inhibitory rate (kinase inhibitory rate of VEGFR2)
T1 construct: made in house; host or cells: SF-21 insect cells, recombinant baculovirus BAC-VEGFR2 (pFASTBAC1)
T1 sequence (P35968 786-1356 limits assumed): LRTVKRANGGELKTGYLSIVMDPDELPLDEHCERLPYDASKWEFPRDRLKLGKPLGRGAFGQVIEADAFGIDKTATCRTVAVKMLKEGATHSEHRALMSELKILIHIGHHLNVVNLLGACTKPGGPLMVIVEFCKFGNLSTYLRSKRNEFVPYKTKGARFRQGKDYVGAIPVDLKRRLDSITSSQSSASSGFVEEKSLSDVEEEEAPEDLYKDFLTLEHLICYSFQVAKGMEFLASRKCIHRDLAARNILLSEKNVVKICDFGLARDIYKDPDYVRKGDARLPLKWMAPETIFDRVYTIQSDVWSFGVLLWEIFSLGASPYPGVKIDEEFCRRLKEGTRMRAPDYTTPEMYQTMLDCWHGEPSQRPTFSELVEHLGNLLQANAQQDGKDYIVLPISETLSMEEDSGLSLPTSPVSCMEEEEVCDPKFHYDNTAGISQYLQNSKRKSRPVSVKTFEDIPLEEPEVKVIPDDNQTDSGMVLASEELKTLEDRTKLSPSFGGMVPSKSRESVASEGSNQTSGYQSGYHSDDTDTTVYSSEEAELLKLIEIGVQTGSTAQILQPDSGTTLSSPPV
Procedure: For cloning of human VEGF receptor 2 (hereinafter to be abbreviated as VEGFR2) gene, PCR was performed using cDNA Libraries Human Placenta (Clontech) as a template. The primer used for PCR was prepared by, based on the information of the base sequence (Genbank Accession AF035121) of VEGFR2 gene, adding a base sequence encoding the flag peptide and a restriction enzyme recognition sequence to the base sequence (2671-4374 of Genbank Accession AF035121) encoding the VEGFR2 intracellular domain, so that a flag tag would be added to the N terminal of the protein. The primer base sequence is shown in the following.
PCR reaction was carried out using a KOD-plus kit (TOYOBO). The obtained PCR product was electrophoresed on an agarose gel (1%), and a DNA fragment amplified by PCR was recovered from the gel and digested with restriction enzymes Sal I and Sph I. The DNA after the restriction enzyme treatment was electrophoresed on an agarose gel (1%), and the obtained DNA fragment was recovered and ligated to the plasmid pFASTBAC1 (Invitrogen) digested with restriction enzymes Sal I and Sph I to give an expression plasmid pFB-VEGFR2. The base sequence of the inserted fragment was confirmed to have matched with the base sequence (2671-4374 of Genbank Accession AF035121) of the VEGFR2 intracellular domain. Furthermore, virus stock BAC-VEGFR2 of the recombinant Baculovirus was prepared using BAC-TO-BAC Baculovirus Expression System (Invitrogen).
SF-21 cells were inoculated into 1 L of Sf-900IISFM medium (Invitrogen) containing 10% fetal calf serum (trace), 50 mg/L Gentamicin (Invitrogen) and 0.1% Pluronic F-68 (Invitrogen) at 1×10^6 cells/ml, and shake culture was performed using a 2 L Erlenmeyer flask at 27° C., 100 rpm. After 24 hr of culture, recombinant Baculovirus BAC-VEGFR2 (13.4 mL) was added, and the culture was continued for 3 days. The culture medium was centrifuged at 2,000 rpm for 5 min to give virus-infected cells. The infected cells were washed with phosphate buffered saline (Invitrogen), centrifuged under the same conditions, and preserved at −80° C. The cryopreserved cells were thawed in ice, suspended in 30 mL of buffer A (Tris buffer, pH 7.4, containing 20% glycerol and 0.15M NaCl (50 mM)) supplemented with Complete Protease Inhibitor (Boehringer), and disrupted three times using a polytron homogenizer (Kinematica) at 20,000 rpm, 30 sec. The disrupt was clarified by centrifugation at 40,000 rpm, 30 min and filtered through a 0.45 μm filter. The filtrate was passed through a column packed with Anti-FLAG M2 Affinity Gel (Sigma Ltd., 4 mL) at a flow rate of about 0.5 mL/min. The column was washed with buffer A and eluted with buffer A containing 100 μg/mL FLAG peptide. The eluate was concentrated by Vivaspin 20 (Viva Science) having a fraction molecular weight of 30K. The concentrate was applied to NAP™ 25 column (Amersham Biosciences) equilibrated with buffer A for buffer exchange. The fractions containing the VEGFR2 intracellular domain protein were collected, glycerol was added to the final concentration of 50% and the fractions cryopreserved at ˜80° C.
The test compound dissolved in dimethyl sulfoxide (DMSO) was diluted with a buffer (50 mM Tris-HCl, pH 7.5, 5 mM MgCl2, 5 mM MnCl2, 2 mM dithiothreitol, 0.01% Tween-20). A buffer (10 μl) containing 50 ng/ml VEGFR2 intracellular domain protein and 250 ng/ml biotin-labeled polypeptide biotinyl-poly-Glu:Tyr (4:1) (CIS Bio International) was added to the compound solution (5 μl). A buffer (10 μl) containing 25 μM ATP was added to the obtained mixture, the mixture was allowed to react at 25° C. for 5 min. Then, 25 μl of a stop solution (100 mM EDTA·2 sodium salt, 62.5 mM HEPES buffer (pH 7.4), 250 mM NaCl, 0.1% bovine serum albumin, 10 μg/ml Streptavidin Donor beads: PerkinElmer for alpha screen assay, 10 μg/ml Anti-phosphotyrosine (P-Tyr-100) Acceptor beads: PerkinElmer for alpha screen assay) was added to quench the reaction. […]

[2] = molecular target: T2, PDGFR Alpha Receptor Kinase (PDGFRalpha) (Homo sapiens, UniProt P16234); assay: Determination of PDGFR alpha receptor kinase (PDGFRalpha) inhibitory activity (alpha screen); type: biochemical; conditions: PDGFRalpha intracellular domain protein, 25 μM ATP buffer; read-out: IC50 value (PDGFRalpha kinase inhibition)
T2 construct: PDGFRalpha intracellular domain protein (UPSTATE); purchased UPSTATE
T2 sequence (P16234 550-1089 limits assumed): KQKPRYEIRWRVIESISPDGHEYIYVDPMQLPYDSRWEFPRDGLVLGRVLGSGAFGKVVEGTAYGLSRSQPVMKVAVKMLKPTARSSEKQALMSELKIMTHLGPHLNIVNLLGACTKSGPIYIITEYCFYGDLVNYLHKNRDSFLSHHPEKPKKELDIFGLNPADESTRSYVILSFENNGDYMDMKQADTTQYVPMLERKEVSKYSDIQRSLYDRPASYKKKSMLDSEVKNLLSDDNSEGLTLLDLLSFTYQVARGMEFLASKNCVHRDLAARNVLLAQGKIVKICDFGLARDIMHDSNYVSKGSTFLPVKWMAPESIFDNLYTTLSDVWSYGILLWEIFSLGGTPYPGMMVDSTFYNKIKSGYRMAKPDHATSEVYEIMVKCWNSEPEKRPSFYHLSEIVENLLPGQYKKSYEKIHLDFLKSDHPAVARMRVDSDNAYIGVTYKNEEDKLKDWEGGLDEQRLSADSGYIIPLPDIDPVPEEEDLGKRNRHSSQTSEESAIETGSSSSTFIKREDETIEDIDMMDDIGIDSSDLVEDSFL
Procedure: The test compound dissolved in dimethyl sulfoxide (DMSO) was diluted with a buffer (50 mM Tris-HCl, pH 7.5, 5 mM MgCl2, 5 mM MnCl2, 2 mM dithiothreitol, 0.01% Tween-20).
Acceptor beads: PerkinElmer for alpha screen assay) was added to quench the reaction. The reaction solution was stood at 25° C. for 16 hr, and the count was measured using a plate reader·Fusion™ (manufactured by PerkinElmer). The kinase inhibitory rate (%) of the test compound was calculated by the following formula.
(§1) Inhibitory rate(%)=(1−(count of test compound−blank)÷(control−blank))×100
(§2) wherein the count of the solution reacted without addition of the compound is “control” and the count of the solution without addition of the compound and ATP is “blank”.

[3] = molecular target: T3, TIE2 Receptor Kinase (TIE2) (Homo sapiens, UniProt Q02763); assay: Determination of TIE2 receptor kinase (TIE2) inhibitory activity (alpha screen); type: biochemical; conditions: TIE2 intracellular domain protein, 5 μM ATP buffer; read-out: IC50 value (TIE2 kinase inhibition)
T3 construct: TIE2 intracellular domain protein (UPSTATE); purchased UPSTATE
T3 sequence (Q02763 770-1124 limits assumed): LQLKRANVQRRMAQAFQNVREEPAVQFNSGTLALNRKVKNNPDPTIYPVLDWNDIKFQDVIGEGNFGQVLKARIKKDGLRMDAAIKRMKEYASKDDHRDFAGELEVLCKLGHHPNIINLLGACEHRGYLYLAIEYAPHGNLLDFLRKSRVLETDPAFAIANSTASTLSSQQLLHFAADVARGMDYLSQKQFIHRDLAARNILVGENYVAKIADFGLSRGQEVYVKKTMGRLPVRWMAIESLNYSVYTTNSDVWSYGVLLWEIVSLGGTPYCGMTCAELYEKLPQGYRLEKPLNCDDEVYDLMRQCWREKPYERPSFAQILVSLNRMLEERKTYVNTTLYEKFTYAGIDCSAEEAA
Procedure: The test compound dissolved in dimethyl sulfoxide (DMSO) was diluted with a buffer (50 mM Tris-HCl, pH 7.5, 5 mM MgCl2, 5 mM MnCl2, 2 mM dithiothreitol, 0.01% Tween-20). A buffer (10 μl) containing 50 ng/ml TIE2 intracellular domain protein (UPSTATE) and 250 ng/ml biotin-labeled polypeptide biotinyl-poly-Glu:Tyr (4:1) (CIS Bio International) was added to the compound solution (5 μl). At 5 min after mixing a kinase enzyme, the compound and a biotin-labeled polypeptide, a buffer (10 μl) containing 5 μM ATP was added to the obtained mixture, the mixture was allowed to react at 25° C. for 10 min. Then, 25 μl of a stop solution (100 mM EDTA·2 sodium salt, 62.5 mM HEPES buffer (pH 7.4), 250 mM NaCl, 0.1% bovine serum albumin, 10 μg/ml Streptavidin Donor beads: PerkinElmer for alpha screen assay, 10 μg/ml Anti-phosphotyrosine (P-Tyr-66) Acceptor beads: PerkinElmer for alpha screen assay) was added to quench the reaction. The reaction solution was stood at 25° C. for 16 hr, and the count was measured using a plate reader·Fusion™ (manufactured by PerkinElmer). The kinase inhibitory rate (%) of the test compound was calculated by the following formula.
as §1, §2
Prism (Graphpad Software) according to the nonlinear-regression sigmoidal dose-response (variable slope) analysis method.

[4] = test system: Human umbilical vein endothelial cells (HUVEC); assay: Vascular endothelial cell growth inhibitory test; type: cell-based; conditions: VEGF 120 ng/mL, culture 5 days, XTT reagent
Procedure: Human umbilical vein endothelial cells (HUVEC, purchased from KURABO) were cultured in a gas incubator (37° C., CO2 5%) in a vascular endothelial cell medium (Invitrogen) containing 5% fetal calf serum and a basic fibroblast growth factor (2.5 ng/mL). To be specific, HUVEC suspended in the aforementioned vascular endothelial cell medium (Invitrogen) containing 5% fetal calf serum were seeded into a 96 well flat-bottom plate (50 μL, 3000 cells each well). After culturing overnight, various concentrations of test substance and the final concentration (120 ng/mL) of vascular endothelial growth factor (VEGF) were dissolved in a vascular endothelial cell medium (Invitrogen) containing 5% fetal calf serum and added to each well (50 μL). After culturing for 5 days, an XTT reagent (Wako Pure Chemical Industries, Ltd.) was added to each well (10 μL), and reacted in a gas incubator (37° C., CO2 5%) for 2-3 hr. The absorbance at 450 nm was measured by a microtiter plate reader, and the cell growth inhibitory activity was determined.

Row | Compound | inhibition at 1 µM [1] [%] | IC50 [2] [nM] | IC50 [3] [nM] | IC50 [4] [nM] | IC50 ([4]; Homo sapiens, 120 h) [nM] | IC50 ([4]; hydrochloride) [nM]
1 | O=C(Nc1cccc(C(F)(F)F)c1)Nc1ccc(Oc2ncnc3cc[nH]c23)cc1Cl [Example 116, N-[2-chloro-4-(5H-pyrrolo[3,2-d]pyrimidin-4-yloxy)phenyl]-N′-[3-(trifluoromethyl)phenyl]urea p-toluenesulfonic Acid Salt] | ≥ 90 | ≤ 500 | ≤ 5 | 3.4 | – | –
2 | O=C(Nc1cccc(C(F)(F)F)c1)Nc1ccc(Oc2ncnc3cc[nH]c23)cc1Cl [Example 39, N-[2-chloro-4-(5H-pyrrolo[3,2-d]pyrimidin-4-yloxy)phenyl]-N′-[3-(trifluoromethyl)phenyl]urea] | – | – | – | – | 4.8 | –
3 | Cn1ccc2ncnc(Oc3ccc(NC(=O)Nc4cc(C(F)(F)F)ccc4F)c(Cl)c3)c21 [Example 40, N-{2-chloro-4-[(5-methyl-5H-pyrrolo[3,2-d]pyrimidin-4-yl)oxy]phenyl}-N′-[2-fluoro-5-(trifluoromethyl)phenyl]urea] | ≥ 90 | – | ≤ 5 | – | 11 | –
4 | O=C(Nc1cccc(C(F)(F)F)c1)Nc1ccc(Oc2ncnc3ccn(CCOCCO)c23)cc1Cl [Example 14, N-[2-chloro-4-({5-[2-(2-hydroxyethoxy)ethyl]-5H-pyrrolo[3,2-d]pyrimidin-4-yl}oxy)phenyl]-N′-[3-(trifluoromethyl)phenyl]urea] | ≥ 90 | ≤ 500 | ≤ 5 | – | 33 | –
5 | Cn1ccc2ncnc(Oc3ccc(NC(=O)Nc4cccc(C(F)(F)F)c4)c(F)c3)c21 [Example 29, N-{2-fluoro-4-[(5-methyl-5H-pyrrolo[3,2-d]pyrimidin-4-yl)oxy]phenyl}-N′-[3-(trifluoromethyl)phenyl]urea] | – | – | – | 4.4 | – | –
6 | Cc1cc2ncnc(Oc3ccc(NC(=O)Nc4cccc(C(F)(F)F)c4)c(Cl)c3)c2n1C [Example 134, N-{2-chloro-4-[(5,6-dimethyl-5H-pyrrolo[3,2-d]pyrimidin-4-yl)oxy]phenyl}-N′-[3-(trifluoromethyl)phenyl]urea hydrochloride] | – | – | – | – | – | 5.4
7 | Cc1cc2ncnc(Oc3ccc(NC(=O)Nc4cccc(C(F)(F)F)c4)c(Cl)c3)c2n1C [Example 124, N-{2-chloro-4-[(5,6-dimethyl-5H-pyrrolo[3,2-d]pytimidin-4-yl)oxy]phenyl}-N′-[3-(trifluoromethyl)phenyl]urea] | – | – | – | 13 | – | –
8 | Cn1ccc2ncnc(Oc3ccc(NC(=O)Nc4cc(C(F)(F)F)ccn4)c(Cl)c3)c21 [Example 60, N-{2-chloro-4-[(5-methyl-5H-pyrrolo[3,2-d]pyrimidin-4-yl)oxy]phenyl}-N′-[4-(trifluoromethyl)pyridin-2-yl]urea Methanesulfonic Acid Salt] | – | – | ≤ 5 | 6.5 | – | –
9 | Cn1ccc2ncnc(Oc3ccc(NC(=O)Nc4cccc(C(F)(F)F)c4)c(F)c3)c21 [Example 137, N-{2-fluoro-4-[(5-methyl-5H-pyrrolo[3,2-d]pyrimidin-4-yl)oxy]phenyl}-N′-[3-(trifluoromethyl)phenyl]urea Hydrochloride] | ≥ 90 | – | ≤ 5 | – | 3.6 | –
10 | Cn1ccc2ncnc(Oc3ccc(NC(=O)Nc4cc(C(F)(F)F)ccn4)c(Cl)c3)c21 [Example 30, N-{2-chloro-4-[(5-methyl-5H-pyrrolo[3,2-d]pyrimidin-4-yl)oxy]phenyl}-N′-[4-(trifluoromethyl)pyridin-2-yl]urea] | ≥ 90 | – | – | 2.7 | – | –
